In patent US8211929B2, “Pyrimidine derivatives as kinase modulators and method of use” (Exelixis, Inc., priority 2004, dated 2012):

Tests used:
[1] = molecular target: T1, (Homo sapiens, UniProt P08069); test: IGF1R kinase assay (LCCA), IGF 0P; assay type: biochemical
T1 construct: human IGF1R kinase domain residues M954-C1367; made in house; host or cells: baculovirus expression (insect cells)
Procedure, shortened: (§1)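 Baculovirus-expressed human IGF1R kinase domain (M954-C1367), 4 nM, with 3 μM ATP and 4 μM poly EY in Tris-HCl pH 7.5 buffer containing MgCl2 and MnCl2, 2 h at ambient temperature. Remaining ATP read by luciferase chemiluminescence; IC50 from 10-point dose-response fitted to a four-parameter equation.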

[2] = molecular target: T2, IGF 3P (Homo sapiens, UniProt P08069); test: IGF1R kinase assay (LCCA), IGF 3P; assay type: biochemical
T2 construct: human IGF1R kinase domain residues M954-C1367; made in house; host or cells: baculovirus expression (insect cells)
Procedure, shortened: as §1

T1 sequence (P08069 954-1367): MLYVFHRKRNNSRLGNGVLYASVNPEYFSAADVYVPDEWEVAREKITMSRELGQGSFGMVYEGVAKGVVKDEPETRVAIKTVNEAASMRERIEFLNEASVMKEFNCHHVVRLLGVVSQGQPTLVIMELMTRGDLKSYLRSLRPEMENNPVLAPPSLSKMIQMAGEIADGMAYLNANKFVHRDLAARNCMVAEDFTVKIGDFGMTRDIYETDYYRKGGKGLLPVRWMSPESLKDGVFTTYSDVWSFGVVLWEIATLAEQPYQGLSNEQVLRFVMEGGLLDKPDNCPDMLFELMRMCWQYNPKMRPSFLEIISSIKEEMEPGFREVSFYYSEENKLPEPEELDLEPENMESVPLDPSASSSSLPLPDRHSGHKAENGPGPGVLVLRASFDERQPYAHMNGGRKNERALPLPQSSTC
T2 sequence (P08069 954-1367): as above

Row | Structure (SMILES) | IC50 [1] | IC50 [2]
1 | CN(C)CCOc1cc(Nc2cc(C3CC3)[nH]n2)nc(NCc2cc(-c3ccccn3)no2)n1 [Example 641, N^4-(5-cyclopropyl-1H-pyrazol-3-yl)-6-{[2-(dimethylamino)ethyl]oxy}-N^2-[(3-pyridin-2-ylisoxazol-5-yl)methyl]pyrimidine-2,4-diamine] | 50 to 500 nM | < 50 nM
2 | CN1CCN(c2cc(Nc3cc(C4CC4)n[nH]3)nc(NCc3cc(-c4cncnc4)no3)n2)CC1 [Example 642, N^4-(3-cyclopropyl-1H-pyrazol-5-yl)-6-(4-methylpiperazin-1-yl)-N^2-[(3-pyrimidin-5-ylisoxazol-5-yl)methyl]pyrimidine-2,4-diamine] | 50 to 500 nM | < 50 nM
3 | c1ncc(-c2cc(CNc3nc(Nc4cc(C5CC5)n[nH]4)cc(N4CCOCC4)n3)on2)cn1 [Example 643, N^4-(3-cyclopropyl-1H-pyrazol-5-yl)-6-morpholin-4-yl-N^2-[(3-pyrimidin-5-ylisoxazol-5-yl)methyl]pyrimidine-2,4-diamine] | 50 to 500 nM | 50 to 500 nM
4 | Cc1cc(CNc2nc(Nc3cc(C4CC4)[nH]n3)cc(OCCN3CCCC3)n2)on1 [Example 647, N^4-(5-cyclopropyl-1H-pyrazol-3-yl)-N^2[(3-methylisoxazol-5-yl)methyl]-6-[(2-pyrrolidin-1-ylethyl)oxy]pyrimidine-2,4-diamine] | 50 to 500 nM | < 50 nM
5 | CN1CCN(c2cc(Nc3cc(C4CC4)[nH]n3)nc(NCc3cc(-c4nccs4)no3)n2)CC1 [Example 648, N^4-(5-cyclopropyl-1H-pyrazol-3-yl)-6-(4-methylpiperazin-1-yl)-N^2-{[3-(1,3-thiazol-2-yl)isoxazol-5-yl]methyl}pyrimidine-2,4-diamine] | 50 to 500 nM | < 50 nM
6 | Cc1cc(Nc2cc(OCCN(C)C)nc(NCc3cc(C)no3)n2)[nH]n1 [Example 650, 6-{[2-(dimethylamino)ethyl]oxy}-N^2-[(3-methylisoxazol-5-yl)methyl]-N^4-(3-methyl-1H-pyrazol-5-yl)pyrimidine-2,4-diamine] | 500 to 5000 nM | 500 to 5000 nM
7 | CCc1cc(CNc2nc(Nc3cc(C4CC4)n[nH]3)cc(N3CCN(C)CC3)n2)on1 [Example 655, N^4-(3-cyclopropyl-1H-pyrazol-5-yl)-N^2-[(3-ethylisoxazol-5-yl)methyl]-6-(4-methylpiperazin-1-yl)pyrimidine-2,4-diamine] | 50 to 500 nM | < 50 nM
8 | CCc1cc(CNc2nc(Nc3cc(C4CC4)n[nH]3)cc(N3CCOCC3)n2)on1 [Example 656, N^4-(3-cyclopropyl-1H-pyrazol-5-yl)-N^2-[(3-ethylisoxazol-5-yl)methyl]-6-morpholin-4-ylpyrimidine-2,4-diamine] | 50 to 500 nM | < 50 nM
9 | CCc1cc(CNc2nc(Nc3cc(C4CC4)n[nH]3)cc(OCCN(C)C)n2)on1 [Example 657, N^4-(3-cyclopropyl-1H-pyrazol-5-yl)-6-{[2-(dimethylamino)ethyl]oxy}-N^2-[(3-ethylisoxazol-5-yl)methyl]pyrimidine-2,4-diamine] | 50 to 500 nM | < 50 nM
10 | CN1CCN(c2cc(Nc3cc(C4CC4)n[nH]3)nc(NCc3cc(-c4ccnc(N)n4)no3)n2)CC1 [Example 660, N^2-{[3-(2-aminopyrimidin-4-yl)isoxazol-5-yl]methyl}-N^4-(3-cyclopropyl-1H-pyrazol-5-yl)-6-(4-methylpiperazin-1-yl)pyrimidine-2,4-diamine] | 50 to 500 nM | 50 to 500 nM
11 | CCN1CCN(c2cc(Nc3cc(C4CC4)n[nH]3)nc(NCc3cc(C(C)C)no3)n2)CC1 [Example 661, N^4-(3-cyclopropyl-1H-pyrazol-5-yl)-6-(4-ethylpiperazin-1-yl)-N^2-{[3-(1-methylethyl)isoxazol-5-yl]methyl}pyrimidine-2,4-diamine] | 50 to 500 nM | < 50 nM
12 | CC(C)c1cc(CNc2nc(Nc3cc(C4CC4)n[nH]3)cc(N3CCC(CCO)CC3)n2)on1 [Example 662, 2-(1-{6-[(3-cyclopropyl-1H-pyrazol-5-yl)amino]-2-({[3-(1-methylethyl)isoxazol-5-yl]methyl}amino)pyrimidin-4-yl}piperidin-4-yl)ethanol] | 50 to 500 nM | < 50 nM
13 | CC(C)c1cc(CNc2nc(Nc3cc(C4CC4)n[nH]3)cc(N3CCN(CCO)CC3)n2)on1 [Example 663, 2-(4-{6-[(3-cyclopropyl-1H-pyrazol-5-yl)amino]-2-({[3-(1-methylethyl)isoxazol-5-yl]methyl}amino)pyrimidin-4-yl}piperazin-1-yl)ethanol] | 50 to 500 nM | < 50 nM
